Source: the OPERA property sets (Mansouri et al. 2018)

Compared with `COc1ccc2c(c1)NC(SCCC(=O)O)=NS2(=O)=O`, `COc1ccc2c(c1)NC(SCC(=O)O)=NS2(=O)=O` is lower in logP: 0.96 for the first, 0.37 for the second.

First: O=C(O)CSC1=NS(=O)(=O)c2cc(Br)cc(Br)c2N1
Second: O=C(O)CCSC1=NS(=O)(=O)c2cc(Br)cc(Br)c2N1
The logP of the first is lower: 1.16 for the first, 2.04 for the second.

`O=C(O)CCCC1=NS(=O)(=O)c2cc(Cl)cc(Cl)c2N1` and `O=C(O)CCC1=NS(=O)(=O)c2cc(Cl)cc(Cl)c2N1` are within 0.2 log units of each other in logP: 1.22 for the first, 1.04 for the second.

`Cc1ccc2c(c1)NC(CCC(=O)O)=NS2(=O)=O` and `Cc1ccc2c(c1)NC(CCCC(=O)O)=NS2(=O)=O` are within 0.2 log units of each other in logP: 0.16 for the first, 0.33 for the second.

Compared with `O=C(O)CCSC1=NS(=O)(=O)c2ccc(C(F)(F)F)cc2N1`, `O=C(O)CSC1=NS(=O)(=O)c2ccc(C(F)(F)F)cc2N1` is lower in logP: 1.96 for the first, 1.62 for the second.

`O=C(O)CCCC1=NS(=O)(=O)c2ccc(Cl)cc2N1` and `O=C(O)CCC1=NS(=O)(=O)c2ccc(Cl)cc2N1` are within 0.2 log units of each other in logP: 0.83 for the first, 0.72 for the second.

Going from `O=C(O)CCC1=NS(=O)(=O)c2ccccc2N1` to `O=C(O)CCSC1=NS(=O)(=O)c2ccccc2N1`, the logP rises from -0.18 to 0.66.

Compared with `O=C(O)CCCC1=NS(=O)(=O)c2cc(Cl)c(Cl)cc2N1`, `O=C(O)CCC1=NS(=O)(=O)c2cc(Cl)c(Cl)cc2N1` is lower in logP: 1.8 for the first, 1.5 for the second.

Going from `O=C(O)CCSC1=NS(=O)(=O)c2cc(Br)ccc2N1` to `O=C(O)CSC1=NS(=O)(=O)c2cc(Br)ccc2N1`, the logP falls from 1.77 to 0.92.

`O=C(O)CCCC1=NS(=O)(=O)c2ccc(C(F)(F)F)cc2N1` and `O=C(O)CCC1=NS(=O)(=O)c2ccc(C(F)(F)F)cc2N1` are within 0.2 log units of each other in logP: 1.24 for the first, 1.3 for the second.

`O=C(O)CSC1=NS(=O)(=O)c2ccc(Cl)cc2N1` and `O=C(O)CSC1=NS(=O)(=O)c2cc(Cl)ccc2N1` are within 0.2 log units of each other in logP: 0.82 for the first, 0.72 for the second.

`O=C(O)CCC1=NS(=O)(=O)c2cc(Br)ccc2N1` and `O=C(O)CCCC1=NS(=O)(=O)c2cc(Br)ccc2N1` are within 0.2 log units of each other in logP: 0.93 for the first, 1.02 for the second.

`O=C(O)CCSC1=NS(=O)(=O)c2cc(Cl)ccc2N1` and `O=C(O)CCSC1=NS(=O)(=O)c2ccc(Cl)cc2N1` are within 0.2 log units of each other in logP: 1.43 for the first, 1.6 for the second.

`O=C(O)CCCC1=NS(=O)(=O)c2cc(Br)cc(Br)c2N1` and `O=C(O)CCC1=NS(=O)(=O)c2cc(Br)cc(Br)c2N1` are within 0.2 log units of each other in logP: 1.51 for the first, 1.35 for the second.

`O=C(O)CCSC1=NS(=O)(=O)c2cc(Cl)c(Cl)cc2N1` and `O=C(O)CCSC1=NS(=O)(=O)c2cc(Cl)cc(Cl)c2N1` are within 0.2 log units of each other in logP: 1.81 for the first, 1.79 for the second.

`O=C(O)CSC1=NS(=O)(=O)c2cc(Cl)cc(Cl)c2N1` and `O=C(O)CSC1=NS(=O)(=O)c2ccc(Cl)c(Cl)c2N1` are within 0.2 log units of each other in logP: 1.09 for the first, 1.1 for the second.

Compared with `Cc1ccc2c(c1)NC(SCC(=O)O)=NS2(=O)=O`, `Cc1ccc2c(c1)NC(SCCC(=O)O)=NS2(=O)=O` is higher in logP: 0.7 for the first, 1.16 for the second.

`COc1ccc2c(c1)NC(CCCC(=O)O)=NS2(=O)=O` and `COc1ccc2c(c1)NC(CCC(=O)O)=NS2(=O)=O` are within 0.2 log units of each other in logP: 0.12 for the first, 0.18 for the second.

`O=C(O)CCC1=NS(=O)(=O)c2cc(Cl)ccc2N1` and `O=C(O)CCCC1=NS(=O)(=O)c2cc(Cl)ccc2N1` are within 0.2 log units of each other in logP: 0.69 for the first, 0.83 for the second.

In the case of `O=C(O)CSC1=NS(=O)(=O)c2ccccc2N1`, the logP was 0.18.
